The conditions of data set [1]: cited from earlier work.
The format of data set [2] is physicochemical. To be noted: for log KOW (eq 5b): corrected for phase volume ratio vO/vW; for migration from water to octanol (log KOW could not be measured): zwitterions.
The conditions of data set [3]: 1H NMR method, preliminary account in the Magritek laboratory manual; cited from earlier work.

Results on 14 molecules are retold here after PMC6644330 (ACS Omega, 2017).

Marks after values point to notes of the source that are not given here.

As for `C1COCCO1` [1,4-dioxane], in data set [1], the “literature log KOW (ref ([9]))” value was “–0.27”. The “log KOW (eq 5b)” value in data set [2] (20–21 °C) is “–0.31”.

As to `CCC(C)O` (stereo not shown) [2-butanol], the “literature log KOW (ref ([9]))” value in data set [1] is listed as 0.61. The “log KOW (eq 5b)” value in data set [2] (20–21 °C) is given as 0.65.

As for `CC(C)CO` [2-methylpropanol-1], the “literature log KOW (ref ([9]))” value in data set [1] is listed as 0.76. Besides, the “log KOW (eq 5b)” value in data set [2] (20–21 °C) is 0.89.

On to `CC(C)=O` [acetone], for which the “log KOW (ref ([14]))” value in data set [3] is listed as “–0.23”. Further, the “literature log KOW (ref ([9]))” value in data set [1] is on record as “–0.24”. Besides, in data set [2] (20–21 °C), the “log KOW (eq 5b)” value was “–0.24”. Also, in data set [2] (single measurement, eq 4), the KOW is given as 0.589 and the “log KOW” value is recorded as −0.23.

Turning to `CC#N` [acetonitrile], in data set [3], the “log KOW (ref ([14]))” value was “–0.51”. The “literature log KOW (ref ([9]))” value in data set [1] is given as “–0.34”. For the same molecule, the “log KOW (eq 5b)” value in data set [2] (20–21 °C) was “–0.28”.

As for `C[C@H](N)C(=O)O` [alanine], the “migration from water to octanol (log KOW could not be measured)” value in data set [2] is reported as “did not migrate to any detectable extent”.

As for `CCC(C)=O` [butanone], the “literature log KOW (ref ([9]))” value in data set [1] is on record as 0.29. In data set [2] (20–21 °C), the “log KOW (eq 5b)” value is on record as 0.33.

As to `C[S+](C)[O-]` [dimethyl sulfoxide], in data set [1], the “literature log KOW” value is −2.03 (ref ([1])) and the “literature log KOW (ref ([9]))” value is given as “–1.35”. For the same molecule, the “log KOW (eq 5b)” value in data set [2] (20–21 °C) is “–1.87”.

Consider `CN(C)C=O` [dimethylformamide], for which the “log KOW (eq 5b)” value in data set [2] (20–21 °C) was “–1.03”.

With `CCOC(C)=O` [ethyl acetate], the “literature log KOW (ref ([9]))” value in data set [1] is on record as 0.73. Besides, the “log KOW (eq 5b)” value in data set [2] (20–21 °C) is 0.88.

`NCC(=O)O` [glycine]: the “migration from water to octanol (log KOW could not be measured)” value in data set [2] is recorded as “did not migrate to any detectable extent”.

Turning to `CO` [methanol], in data set [1], the “literature log KOW (ref ([9]))” value is recorded as “–0.77”. Besides, the “log KOW (eq 5b), corrected for OH” value in data set [2] (20–21 °C, corrected for phase volume ratio and for OH) was −0.71 ^c. In addition, the “log KOW (eq 5b)” value in data set [2] (20–21 °C) is listed as “–0.75”. In addition, the “log KOW ± SD (eq 4, this work), corrected for OH” value in data set [2] (20–21 °C, n = 5, equal phase volumes assumed, corrected for OH) is given as “–0.72 ^c ± 0.016 (n = 5)”. For the same molecule, the “correction of log KOW for alcohol OH protons” value in data set [2] (increase of log KOW) stood at 0.04.

Consider `COC(C)=O` [methyl acetate], for which, in data set [1], the “literature log KOW (ref ([9]))” value is listed as 0.18. Further, the “log KOW (eq 5b)” value in data set [2] (20–21 °C) is listed as 0.19.

Turning to `C1CCOC1` [tetrahydrofuran], in data set [3], the “log KOW (ref ([14]))” value is 0.43. The “literature log KOW (ref ([9]))” value in data set [1] is 0.46. For the same molecule, the “log KOW (eq 5b)” value in data set [2] (20–21 °C) turned out to be 0.44.
